Assay results: patent publication EP4048709B1, “A DRUG FOR THE TREATMENT OF CERVICAL CANCER” (Yildiz Teknik Universitesi, priority 2020, dated 2022)

Experiments:
[1] = standard, in THF; cited from earlier work
HeLa cells [2] = assay: proliferation rate analysis (MTT, mitochondrial dehydrogenase enzyme activity); type: cell-based, human; conditions: for absorbance values / viability of cells: 24 hours; for absorbance values: MTT, 570 nm with reference to 690 nm, control group 590×10^-3; for viability of cells: control group considered 100%
Procedure: Different concentrations of In(III)Pc complex were applied to cultured human cervical cancer originated HeLa cells for 24 hours in order to determine the changes in mitochondrial dehydrogenase enzyme activity of cancer cells by means of the In(III)Pc complex obtained. For proliferation rate analysis, routinely cultured HeLa cells were cultivated in culture plates with 96 wells such that the growth medium is 3×10^4 cell/ml per well. In(III)Pc complex prepared at 50 µM, 100 µM, and 150 µM concentrations were applied to the cells after waiting for the cells to adhere and spread. The growth medium in the wells was withdrawn and 40 µl of 3-(4,5-dimethylthiazol-2-yl)-2,5-diphenyltetrazolium bromide (MTT) (5mg/ml) was added at the end of the experiment periods. 160 µl of dimethyl sulfoxide (DMSO) was added to the wells with MTT and incubated for 1 hour in a shaker incubator after waiting for approximately 4 hours. The absorbance values of the formed experimental groups were carried out by means of the spectrophotometer measurements at 570 nm with reference to the 690 nm wavelength after the formazan crystals formed are dissolved for the 1 hour incubation period. The absorbance values obtained as a result of this application were measured as 590×10^-3 for the control group; 460 ×10^-3 for 50 µM; 280 ×10^-3 for 100 µM, and 170 ×10^-3 for 150 µM.

HeLa cells [3] = assay: cell index, real-time cell analysis system; type: cell-based, human; conditions: 72 hours
Procedure: In the present invention, the cell index parameter was evaluated by means of using a real-time cell analysis system in order to both support the results obtained and to determine the types of cell death, and an E-Plate with 16 wells was used in order to evaluate this parameter. Primarily, 100 µl of growth medium was added to each well of the E-Plate, and background measurements were taken in the cell analyzer device. Then, cultivation is performed in each well such that the 100 µl of growth medium has 6000 cells for HeLa cells. The E-Plates were incubated for 20 minutes in a sterile working cabinet at room temperature, and then placed in the cell analyzer device and incubation was continued at 37°C under ambient conditions of 5% carbon dioxide (CO2) after the cultivation process. The cell analyzer was issued a command to take the measurement every 15 minutes after the cell cultivation to the E-Plates was performed. After approximately 24 hours of cell cultivation, the growth medium in the E-Plates was changed with a growth medium containing different concentrations of In(III)Pc complex at the 1/3rd slice of the proliferation phase of the cells, and measurements were continued at 15-minute intervals for 72 hours. Subsequently, graphics of concentration and time-dependent cell index values were transferred to the computer screen. The antiproliferative effects of the In(III)Pc complex on HeLa cells are observed when the cell index values obtained from the real-time cell analysis system are examined.

HeLa cells [4] = assay: mitotic index (Feulgen method, Giemsa staining); type: cell-based, human; conditions: 100 µM
Procedure: As a result of applying the optimum concentration of the product(100 µM) on HeLa cells for 0-72 hours, the preparations prepared according to the experimental groups were primarily hydrolyzed with 1 N hydrochloric acid (HCl) at room temperature for 1 minute and then with 1 N HCl at 60°C for 10 minutes in order to determine the effects on the mitotic index values of the cells. After hydrolysis, the Feulgen method was applied to the preparations for 1 hour. Then, these preparations were washed 3 times for 2 minutes with a washing solution, which is specific to the Feulgen method, and air-dried. After the preparations were dried, they were prepared for counting by means of staining with Giemsa dye for 2 minutes. Late prophase, metaphase, anaphase, and telophase stages were counted in order to determine the mitosis index (MI) values of said preparations. The early prophase stage was evaluated together with this stage, as it was morphologically similar to the cells in the interphase group.
Three preparations were evaluated for each experimental group and mitosis index values were determined by means of counting 3000 cells on average from each preparation. The mitosis index values have been decreased from 6% to 3,7% at the 24th hour; from 6,68% to 2,21% at the 48th hour, and from 7,56% to 1,19% at the 72nd hour.

[5] = singlet oxygen quantum yield (DPBF quencher, ZnPc standard); type: physicochemical; conditions: irradiated in the Q band area, room conditions, Figure 7
Procedure: Singlet oxygen quantum yields of the inventive Compound 2 were calculated by means of Zinc (II) phthalocyanine (ZnPc) standard and 1,3-diphenylisobenzofuran (DPBF) singlet oxygen quencher at room conditions via using Equation-2 below: ΦΔ = ΦΔ^Std .(RDPBF .Iabs^Std)/(RDPBF^Std .Iabs) [formula] wherein, • Φ^StdΔ; the singlet oxygen yield (ZnPc ΦΔ = 0,53 in THF) • ΦΔ; for example, singlet oxygen yield, • RDPBF; the degradation rate of DPBF in the presence of the sample, • ROPBFstd; the degradation rate of DPBF in the presence of the standard, • Iabs; the light absorption rate of sample and standard, • IabStd; the light absorption rate of the standard.
DPBF with a concentration of […] was used in order to prevent chain reactions caused by the presence of singlet oxygen. Solutions of a sensitizer containing DPBF (absorbance at irradiation wavelength = 2.0) were prepared in a dark environment and irradiated in the Q band area by means of using the setup described above. This yield was found as 49%, according to Figure 7. […]

[6] = photodegradation quantum yield under irradiation; type: physicochemical
Procedure: DPBF with a concentration of […] was used in order to prevent chain reactions caused by the presence of singlet oxygen. Solutions of a sensitizer containing DPBF (absorbance at irradiation wavelength = 2.0) were prepared in a dark environment and irradiated in the Q band area by means of using the setup described above. This yield was found as 49%, according to Figure 7. The maximum absorbance of the Q band in the solutions of all complexes was set to 1.0 in the solvent used in order to determine the photodegradation quantum yield (Φd), and the decrease in the intensity of the Q band under irradiation with time is observed by means of using the following Equation-3: Φd = ((C0−Ct).V.NA)/(Iabs .S.t) [formula] wherein, • C0 (mol.dm^-3); concentration of Compound 2 before irradiation, • Ct (mol.dm^-3); concentration of Compound 2 […]; reaction volume (3.0 cm^3), • S; irradiated cell area, • t; irradiation time, • NA; Avogadro's number, • Iabs; the overlapping integration of the radiation source intensity. […] It has been observed that Compound 2 is active in destroying cancer cells, and as such may have a potential for the treatment of cancer with PDT when considering the PDT characteristic measurement results described above.

[7] = solubility in common solvents; type: physicochemical; conditions: chloroform, acetone, THF, ethanol, methanol, DMF or DMSO
Procedure: The compound obtained by means of the aforementioned method is in the form of a dark green crystal, and the yield thereof is 82 mg (16,14%). The closed formula of Compound 2, which has a melting point >300°C is C89H99InN8O6, and its molecular weight is 1491,61 g/mol. It has been determined that C, 71.66; H, 6.69; […]; N, 7.51; O, 6.44 when the theoretical elemental analysis of the compound was performed. FTIR analysis was conducted in order to shed light upon the structure of said Compound 2 and it is illustrated in Figure 3. […] Table 1. The solubility data of the In(III) Pc compound.

Compound	singlet oxygen yield ΦΔ [1]	absorbance values (HeLa cells [2]; 50 µM)	viability of cells (HeLa cells [2]; 50 µM) [%]	death of the cells (HeLa cells [2]; 100 µM) [%]	absorbance values (HeLa cells [2]; 100 µM)	viability of cells (HeLa cells [2]; 100 µM) [%]	absorbance values (HeLa cells [2]; 150 µM)	viability of cells (HeLa cells [2]; 150 µM) [%]	IC50 (HeLa cells [2]; HeLa cells, read-out: IC50 concentration) [µM]	effect on cell index values compared with standard curves (HeLa cells [3]; 50 µM)	effect on cell index values compared with standard curves (HeLa cells [3]; 100 µM (optimum concentration))	effect on cell index values compared with standard curves (HeLa cells [3]; 100 µM (optimum concentration), listed as In(III)Pc complex)	effect on cell index values compared with standard curves (HeLa cells [3]; 150 µM)	mitosis index values (HeLa cells [4]; 24th hour, decreased from 6%)	mitosis index values (HeLa cells [4]; 48th hour, decreased from 6,68%)	mitosis index values (HeLa cells [4]; 72nd hour, decreased from 7,56%)	singlet oxygen yield [5] [%]	photodegradation quantum yield (Φd) ([6]; Q band absorbance set to 1.0, irradiation with time)	stability under the light ([6]; from the photodegradation quantum yield)	solubility [7]
[Zn+2].c1ccc2c(c1)-c1nc-2nc2[n-]c(nc3nc([n-]c4nc(n1)-c1ccccc1-4)-c1ccccc1-3)c1ccccc21 [ZnPc, Zinc (II) phthalocyanine]	0,53																			
1,8(11), 15(18),22(25)-tetra-(3,5-di-tert-butylphenoxy) indium (III) phthalocyanine [Compound 2]		460 ×10^-3	78	52.55	280 ×10^-3	47.45	170 ×10^-3	28.81	100	does not show a significant effect	DNA damaging effect	DNA damage	cytoskeletal effect	3,7%	2,21%	1,19%	49	2,0017×10^-05	stable under the light	capable of getting dissolved in common solvents
